The record followed here is patent US12692396B2, “Fluorescent labeling agent and fluorescent dye” (artience Co., Ltd., priority 2020, dated 2026).

The data set concerns Human epithelium cancer cells A431. Nature of the data set: Evaluation of cell toxicity of fluorescent labeling agent (cell counting kit-8, absorbance at 450 nm). It counts as cell-based. As to conditions: labeling agent left one hour, absorbance relative to DMSO medium solution regarded as one. The procedure:
<Evaluation of Cell Toxicity of Fluorescent Labeling Agent>
Human epithelium cancer cells A431 were seeded in a 96-well plate (1×10^4 cells/well). Next, the A431 were cultured for 24 hours using an RPMI 1640 medium to which 10% fetal bovine serum (FBS) and 1% penicillin-streptomycin had been added in an incubator (37° C., 5% CO2-containing Air, humidified environment). As the RPMI 1640 medium, an RPMI-164-Medium manufactured by Sigma-Aldrich Inc. was used.
After cultivation, the medium was removed, the fluorescent labeling agents prepared in Examples 83 to 123 and Comparative Examples 25 to 37 and an RPMI 1640 medium containing 1% dimethyl sulfoxide (DMSO medium solution) were added thereto. These were left to stand in the incubator for one hour and then washed in the RPMI 1640 medium. 10 μL of a cell counting kit-8 (manufactured by Dojindo Laboratories.) was added to each well and left to stand in the incubator (37° C., 5% CO2-containing Air, humidified environment) for one hour. Next, the absorbance at 450 nm was measured using a plate reader (SPARK, manufactured by Tecan Trading AG).
The relative value of the absorbance of each fluorescent labeling agent when the absorbance of the well to which the DMSO medium solution had been added was regarded as one was calculated and evaluated based on the following standards. […] At the time of calculating the relative value of the absorbance of the fluorescent labeling agent, a value obtained by subtracting the absorbance before the addition of the cell counting kit-8 (manufactured by Dojindo Laboratories.) from the measured absorbance was used.
• P (Pass): 0.8 or more • F (Failure): Less than 0.8 <Evaluation of Fluorescence Intensity of Fluorescent Labeling Agent>
(Formazan colour is commonly taken as a measure of viable cells.)
As for `C[Si](C)(CCCN)[O][Al]1[n]2c3c4cc(C5CCCCC5)c(C5CCCCC5)cc4c2N=C2N=C(N=c4c5cc(C6CCCCC6)c(C6CCCCC6)cc5c([n]41)=NC1=NC(=N3)c3cc(C4CCCCC4)c(C4CCCCC4)cc31)c1cc(C3CCCCC3)c(C3CCCCC3)cc12` [Fluorescent dye 3], the Cell toxicity result was “P (P (Pass): 0.8 or more)”.
Regarding `C[Si](C)(CCCN)[O][Al]1[n]2c3c4cccc(Sc5ccccc5)c4c2N=C2N=C(N=c4c5cccc(Sc6ccccc6)c5c([n]41)=NC1=NC(=N3)c3c(Sc4ccccc4)cccc31)c1c(Sc3ccccc3)cccc12` [Fluorescent dye 4], the Cell toxicity entry is “P (P (Pass): 0.8 or more)”.
Under `CCOc1cccc2c1C1=NC2=Nc2c3c(OCC)cccc3c3n2[Si](O)(O[Si](C)(C)CCCN)n2c(c4cccc(OCC)c4c2=NC2=NC(=N3)c3c(OCC)cccc32)=N1` (stereo not shown) [Fluorescent dye 5] stands “P (P (Pass): 0.8 or more)”.
Take `CCOc1cccc2c1C1=NC2=Nc2c3c(OCC)cccc3c3[n]2[Al]([O]S(=O)(=O)c2ccc(CCN)cc2)[n]2c(c4cccc(OCC)c4c2=NC2=NC(=N3)c3c(OCC)cccc32)=N1` [Fluorescent dye 6]: the Cell toxicity result is recorded as “P (P (Pass): 0.8 or more)”.
Take `NCCc1ccc(S(=O)(=O)[O][Al]2[n]3c4c5cc(C(F)(F)F)ccc5c3N=C3N=C(N=c5c6cc(C(F)(F)F)ccc6c([n]52)=NC2=NC(=N4)c4ccc(C(F)(F)F)cc42)c2ccc(C(F)(F)F)cc23)cc1` [Fluorescent dye 7]: the Cell toxicity result is recorded as “P (P (Pass): 0.8 or more)”.
As for `CCCCCCCCCCCCCCCCCCc1ccc2c(c1)C1=NC2=Nc2c3cc(CCCCCCCCCCCCCCCCCC)ccc3c3[n]2[Al]([O]S(=O)(=O)c2ccc(CCN)cc2)[n]2c(c4ccc(CCCCCCCCCCCCCCCCCC)cc4c2=NC2=NC(=N3)c3cc(CCCCCCCCCCCCCCCCCC)ccc32)=N1` [Fluorescent dye 8], the Cell toxicity entry is on record as “P (P (Pass): 0.8 or more)”.
For `CC(C)(C)c1ccc2c(c1)C1=NC2=Nc2c3cc(C(C)(C)C)ccc3c3[n]2[Al]([O]S(=O)(=O)c2ccc(CCN)cc2)[n]2c(c4ccc(C(C)(C)C)cc4c2=NC2=NC(=N3)c3cc(C(C)(C)C)ccc32)=N1` [Fluorescent dye 9], the Cell toxicity entry is “P (P (Pass): 0.8 or more)”.
As to `CCOc1cccc2c1C1=NC2=Nc2c3c(OCC)cccc3c3[n]2[Al]([O]C(=O)CCCN)[n]2c(c4cccc(OCC)c4c2=NC2=NC(=N3)c3c(OCC)cccc32)=N1` [Fluorescent dye 10], the Cell toxicity entry is recorded as “P (P (Pass): 0.8 or more)”.
With `CCOc1cccc2c1C1=NC2=Nc2c3c(OCC)cccc3c3[n]2[Al]([O]C(=O)c2ccc(C(=O)O)cc2)[n]2c(c4cccc(OCC)c4c2=NC2=NC(=N3)c3c(OCC)cccc32)=N1` [Fluorescent dye 11] the entry was “P (P (Pass): 0.8 or more)”; with `CC(C)C(Oc1cccc2c1C1=NC2=Nc2c3c(OC(C(C)C)C(C)C)cccc3c3[n]2[Al]([O]S(=O)(=O)CCCOCCC(=O)O)[n]2c(c4cccc(OC(C(C)C)C(C)C)c4c2=NC2=NC(=N3)c3c(OC(C(C)C)C(C)C)cccc32)=N1)C(C)C` [Fluorescent dye 12], “P (P (Pass): 0.8 or more)”.
